# Several values for one entry are separate records, joined by “and”; a condition that tells them apart may be missing. Equal entries are not always repeated. Inconclusive results and toxic doses are left out.
# Test system: CD2F1 mice, L1210 leukemia ip, survival T/C
# Experiment: NCI In Vivo Anticancer Drug Screen. Data for tumor model L1210 Leukemia (intraperitoneal) in CD2F1 (CDF1) mice
# Conditions: higher = longer survival
# Outline: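 Antitumor effect is scored in animals hosting a serially transplanted tumor. Values compare compound-dosed animals against vehicle-only controls as a simple quotient.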
# [1] = endpoint: mean survival time, dose: 50.0 mg/kg/injection, schedule: Q01DX009 (ip), vehicle: Klucel (hydroxypropylcellulose) (HPC)
# [2] = endpoint: mean survival time, dose: 200.0 mg/kg/injection, schedule: Q01DX009 (ip), vehicle: Klucel (hydroxypropylcellulose) (HPC)
# [3] = endpoint: mean survival time, dose: 100.0 mg/kg/injection, schedule: Q04DX003 (ip), vehicle: saline with Tween-80
# [4] = endpoint: mean survival time, dose: 200.0 mg/kg/injection, schedule: Q04DX003 (ip), vehicle: saline with Tween-80
# [5] = endpoint: mean survival time, dose: 400.0 mg/kg/injection, schedule: Q04DX003 (ip), vehicle: saline with Tween-80
# [6] = endpoint: mean survival time, dose: 50.0 mg/kg/injection, schedule: Q01DX009 (ip), vehicle: saline
# [7] = endpoint: mean survival time, dose: 100.0 mg/kg/injection, schedule: Q01DX009 (ip), vehicle: saline
# [8] = endpoint: mean survival time, dose: 25.0 mg/kg/injection, schedule: Q01DX009 (ip), vehicle: saline with Tween-80
# [9] = endpoint: mean survival time, dose: 50.0 mg/kg/injection, schedule: Q01DX009 (ip), vehicle: saline with Tween-80
# [10] = endpoint: mean survival time, dose: 100.0 mg/kg/injection, schedule: Q01DX009 (ip), vehicle: saline with Tween-80
# [11] = endpoint: mean survival time, dose: 200.0 mg/kg/injection, schedule: Q01DX009 (ip), vehicle: saline with Tween-80
# [12] = endpoint: mean survival time, dose: 400.0 mg/kg/injection, schedule: Q01DX009 (ip), vehicle: saline with Tween-80
# [13] = endpoint: mean survival time, dose: 100.0 mg/kg/injection, schedule: Q01DX001 (ip), vehicle: saline
# [14] = endpoint: mean survival time, dose: 200.0 mg/kg/injection, schedule: Q01DX001 (ip), vehicle: saline
# [15] = endpoint: mean survival time, dose: 400.0 mg/kg/injection, schedule: Q01DX001 (ip), vehicle: saline
smiles,measurement,setting,value
Nc1nc(N)c2cc(CNc3ccc(C(=O)NC(CC(=O)O)CC(=O)O)cc3)ccc2n1,T/C,"endpoint: mean survival time, dose: 25.0 mg/kg/injection, schedule: Q01DX009 (ip), vehicle: Klucel (hydroxypropylcellulose) (HPC)",160 % of control
same,T/C,[1],162 % of control and 206 % of control
same,T/C,[2],114 % of control and 103 % of control
same,T/C,"endpoint: mean survival time, dose: 400.0 mg/kg/injection, schedule: Q01DX009 (ip), vehicle: Klucel (hydroxypropylcellulose) (HPC)",96 % of control and 98 % of control
CCCCCCCCCCCc1nc(N)n[nH]1,T/C,[3],98 % of control
same,T/C,[4],102 % of control
same,T/C,[5],102 % of control
CCCOCC(O)CNCCN (centres undefined),T/C,"endpoint: mean survival time, dose: 12.5 mg/kg/injection, schedule: Q01DX009 (ip), vehicle: saline",96 % of control and 101 % of control
same,T/C,"endpoint: mean survival time, dose: 25.0 mg/kg/injection, schedule: Q01DX009 (ip), vehicle: saline",94 % of control and 98 % of control
same,T/C,[6],93 % of control and 94 % of control
same,T/C,[7],93 % of control and 96 % of control
CCCCOC(=O)C=O,T/C,"endpoint: mean survival time, dose: 12.5 mg/kg/injection, schedule: Q01DX009 (ip), vehicle: saline with Tween-80",101 % of control
same,T/C,[8],105 % of control
same,T/C,[9],99 % of control
Cc1cc([N+](=O)[O-])ccc1P(=O)(O)O,T/C,[6],88 % of control
O=[N+]([O-])c1ccc(C[n+]2ccccc2)cc1,T/C,"endpoint: mean survival time, dose: 5.0 mg/kg/injection, schedule: Q01DX009 (ip), vehicle: saline",87 % of control
same,T/C,"endpoint: mean survival time, dose: 5.0 mg/kg/injection, schedule: Q04DX003 (ip), vehicle: saline",104 % of control
same,T/C,"endpoint: mean survival time, dose: 10.0 mg/kg/injection, schedule: Q01DX009 (ip), vehicle: saline",90 % of control
same,T/C,"endpoint: mean survival time, dose: 10.0 mg/kg/injection, schedule: Q04DX003 (ip), vehicle: saline",108 % of control
same,T/C,"endpoint: mean survival time, dose: 20.0 mg/kg/injection, schedule: Q01DX009 (ip), vehicle: saline",95 % of control
same,T/C,"endpoint: mean survival time, dose: 20.0 mg/kg/injection, schedule: Q04DX003 (ip), vehicle: saline",100 % of control
CC(=O)OCC1OC(OC2C(COC(C)=O)OC(Sc3ccccc3)C(OC(C)=O)C2OC(C)=O)C(OC(C)=O)C(OC(C)=O)C1OC(C)=O (centres undefined),T/C,"endpoint: mean survival time, dose: 0.78 mg/kg/injection, schedule: Q01DX009 (ip), vehicle: saline with Tween-80",105 % of control
same,T/C,"endpoint: mean survival time, dose: 1.56 mg/kg/injection, schedule: Q01DX009 (ip), vehicle: saline with Tween-80",101 % of control
same,T/C,"endpoint: mean survival time, dose: 3.13 mg/kg/injection, schedule: Q01DX009 (ip), vehicle: saline with Tween-80",101 % of control
same,T/C,[10],95 % of control
same,T/C,[11],98 % of control
same,T/C,[12],93 % of control
COC1CC(O)C2OC(c3ccccc3)OCC2O1 (centres undefined),T/C,[3],104 % of control
same,T/C,[4],93 % of control
same,T/C,[5],107 % of control
NCc1cccc(-c2nc3ncnc(N)c3[nH]2)c1,T/C,[6],101 % of control
same,T/C,[7],105 % of control
N=C(CN1CCCCC1)N1CCCCC1,T/C,"endpoint: mean survival time, dose: 25.0 mg/kg/injection, schedule: Q04DX002 (ip), vehicle: saline",104 % of control
same,T/C,"endpoint: mean survival time, dose: 50.0 mg/kg/injection, schedule: Q04DX002 (ip), vehicle: saline",101 % of control
same,T/C,"endpoint: mean survival time, dose: 100.0 mg/kg/injection, schedule: Q04DX002 (ip), vehicle: saline",112 % of control
CCOC(=O)C(Cc1cccc2ccccc12)P(=O)(OCC)OCC (centres undefined),T/C,[13],108 % of control
same,T/C,[14],108 % of control
same,T/C,[15],106 % of control
Nc1ncc2ccccc2c1-c1ccc(NC(=O)CN(CCCl)CCCl)cc1,T/C,"endpoint: mean survival time, dose: 25.0 mg/kg/injection, schedule: Q04DX003 (ip), vehicle: other",106 % of control
same,T/C,"endpoint: mean survival time, dose: 50.0 mg/kg/injection, schedule: Q04DX003 (ip), vehicle: other",106 % of control
same,T/C,"endpoint: mean survival time, dose: 100.0 mg/kg/injection, schedule: Q04DX003 (ip), vehicle: other",103 % of control
same,T/C,"endpoint: mean survival time, dose: 200.0 mg/kg/injection, schedule: Q04DX003 (ip), vehicle: other",109 % of control
same,T/C,"endpoint: mean survival time, dose: 400.0 mg/kg/injection, schedule: Q04DX003 (ip), vehicle: other",112 % of control
CSc1nc(N)c(N=O)c(=O)[nH]1,T/C,"endpoint: mean survival time, dose: 100.0 mg/kg/injection, schedule: Q01DX001 (ip), vehicle: Klucel (hydroxypropylcellulose) (HPC)",98 % of control
same,T/C,"endpoint: mean survival time, dose: 200.0 mg/kg/injection, schedule: Q01DX001 (ip), vehicle: Klucel (hydroxypropylcellulose) (HPC)",100 % of control
same,T/C,"endpoint: mean survival time, dose: 400.0 mg/kg/injection, schedule: Q01DX001 (ip), vehicle: Klucel (hydroxypropylcellulose) (HPC)",109 % of control
[Cl][Pt+2][Cl].[NH-]c1cc(Cl)c(Cl)c(Cl)c1[NH-],T/C,"endpoint: mean survival time, dose: 2.5 mg/kg/injection, schedule: Q01DX009 (ip), vehicle: saline with Tween-80",105 % of control
same,T/C,"endpoint: mean survival time, dose: 5.0 mg/kg/injection, schedule: Q01DX009 (ip), vehicle: saline with Tween-80",100 % of control
same,T/C,"endpoint: mean survival time, dose: 10.0 mg/kg/injection, schedule: Q01DX009 (ip), vehicle: saline with Tween-80",100 % of control
same,T/C,"endpoint: mean survival time, dose: 20.0 mg/kg/injection, schedule: Q01DX009 (ip), vehicle: saline with Tween-80",107 % of control
same,T/C,"endpoint: mean survival time, dose: 40.0 mg/kg/injection, schedule: Q01DX009 (ip), vehicle: saline with Tween-80",94 % of control
CC(=Nc1ccccc1)c1ccc2ccccc2c1,T/C,[3],98 % of control
same,T/C,[4],93 % of control
same,T/C,[5],97 % of control
CC(=O)OC1CCC2(C)C(=CC=C3C2CCC2(C)C3CC3OC4(CCC(C)CO4)C(C)C32)C1 (centres undefined),T/C,[1],92 % of control
same,T/C,"endpoint: mean survival time, dose: 100.0 mg/kg/injection, schedule: Q01DX009 (ip), vehicle: Klucel (hydroxypropylcellulose) (HPC)",97 % of control
same,T/C,[2],94 % of control
CCOc1ccc(OCC)c(NC(=O)c2ccccc2)c1,T/C,[10],98 % of control
same,T/C,[11],107 % of control
same,T/C,[12],100 % of control
Clc1ccc(-n2cccc2)cc1,T/C,[3],98 % of control
same,T/C,[4],91 % of control
same,T/C,[5],98 % of control
CCCCCCCCCCCCCCCC/C(=C\c1ccc2ccccc2c1)[N+](=O)[O-],T/C,"endpoint: mean survival time, dose: 75.0 mg/kg/injection, schedule: Q01DX001 (ip), vehicle: other",106 % of control
same,T/C,"endpoint: mean survival time, dose: 150.0 mg/kg/injection, schedule: Q01DX001 (ip), vehicle: other",96 % of control
same,T/C,"endpoint: mean survival time, dose: 300.0 mg/kg/injection, schedule: Q01DX001 (ip), vehicle: other",95 % of control
C[C@H]1CP(c2ccccc2)(c2ccccc2)(c2ccccc2)O[C@@]1(C(=O)c1ccccc1)c1ccccc1,T/C,"endpoint: mean survival time, dose: 200.0 mg/kg/injection, schedule: Q01DX001 (ip), vehicle: saline with Tween-80",91 % of control
CN1C(=O)C2(Cc3cn(C45CC67SSC(CO)(C(=O)N6C4Nc4ccccc45)N(C)C7=O)c4ccccc34)SSC1(CO)C(=O)N2C (centres undefined),T/C,"endpoint: mean survival time, dose: 0.31 mg/kg/injection, schedule: Q01DX009 (ip), vehicle: Klucel (hydroxypropylcellulose) (HPC)",93 % of control
same,T/C,"endpoint: mean survival time, dose: 0.62 mg/kg/injection, schedule: Q01DX009 (ip), vehicle: Klucel (hydroxypropylcellulose) (HPC)",100 % of control
same,T/C,"endpoint: mean survival time, dose: 1.25 mg/kg/injection, schedule: Q01DX009 (ip), vehicle: Klucel (hydroxypropylcellulose) (HPC)",100 % of control
CC(=O)Nc1ccc(C(=O)C=P(c2ccccc2)(c2ccccc2)c2ccccc2)cc1,T/C,[13],101 % of control
same,T/C,[14],97 % of control
same,T/C,[15],97 % of control
O=Cc1ccc[nH]1,T/C,[13],94 % of control
same,T/C,"endpoint: mean survival time, dose: 100.0 mg/kg/injection, schedule: Q04DX003 (ip), vehicle: saline",104 % of control
same,T/C,[14],100 % of control
same,T/C,"endpoint: mean survival time, dose: 200.0 mg/kg/injection, schedule: Q04DX003 (ip), vehicle: saline",101 % of control
same,T/C,[15],100 % of control
same,T/C,"endpoint: mean survival time, dose: 400.0 mg/kg/injection, schedule: Q04DX003 (ip), vehicle: saline",108 % of control
CC1(C)CC(O)(Cc2ccccc2)C(O)c2ccccc21 (centres undefined),T/C,[3],93 % of control
same,T/C,[4],97 % of control
same,T/C,[5],93 % of control
O=C(Nc1ccc(-c2cc(-c3ccccc3)on2)cc1)c1ccccc1,T/C,[3],90 % of control
same,T/C,[4],88 % of control
same,T/C,[5],88 % of control
CC(C)NCC(O)COc1ccc(O)c(O)c1 (centres undefined),T/C,"endpoint: median survival time, dose: 12.5 mg/kg/injection, schedule: Q01DX009 (ip), vehicle: saline",101 % of control
same,T/C,"endpoint: median survival time, dose: 25.0 mg/kg/injection, schedule: Q01DX009 (ip), vehicle: saline",97 % of control and 101 % of control
same,T/C,"endpoint: median survival time, dose: 50.0 mg/kg/injection, schedule: Q01DX009 (ip), vehicle: saline",98 % of control and 107 % of control
same,T/C,"endpoint: median survival time, dose: 100.0 mg/kg/injection, schedule: Q01DX009 (ip), vehicle: saline",107 % of control and 112 % of control
same,T/C,"endpoint: median survival time, dose: 200.0 mg/kg/injection, schedule: Q01DX009 (ip), vehicle: saline",90 % of control
CCCC(C)(CC)NC(=O)OCC (centres undefined),T/C,[13],107 % of control
same,T/C,[14],111 % of control
same,T/C,[15],111 % of control
CCCCOS(=O)(=O)c1ccc(Cl)c([N+](=O)[O-])c1,T/C,[8],102 % of control
same,T/C,[9],100 % of control
same,T/C,[10],91 % of control
same,T/C,[3],96 % of control
same,T/C,[4],98 % of control
same,T/C,[5],91 % of control
